Results on two compounds are retold here after patent publication US20240316023A1, “BENEDIN, PIPERIDINE, 2-BENZHYDRYL-3-HYDROXY-N-METHYL-, HYDROCHLORIDE AND DERIVATIVES THEREOF FOR USE IN TREATING KLEINE-LEVIN SYNDROME” (priority 2021, published 2024).

For test [1], the system named is patients with frequent episodes of KLS. Conditions: compared to rest of stimulants; cited from earlier work.
Another test relates to Mice, C57BL/6J, male. The experiment in a line: Novel object recognition (NOR) test, long-term memory. The format is in vivo. Particulars: donepezil 2 mg/kg i.p.; 3-days interval. On the procedure: Long-term episodic memory was tested in the NOR test, using a 3-days interval between the acquisition session (called sample trial) and the retention session (called choice trial). This method allows to detect an improvement of memory in the natural forgetting condition:
The test was carried out in circular boxes (30 cm diameter, 40 cm high). The objects to be discriminated (L≈1≈h≈3-4 cm) differed in both color and shape and were referred as yellow duck and blue lego. They were fixed with a magnet to the floor of the boxes at 5 cm of the wall, 20 cm distant. Apparently, they have no natural significance for mice and they have never been associated with a reinforcement. In order to rule out the possibility of scent traces left on the objects and therefore the dependency of the recognition capacity of mice on the olfactory cue, the objects and the ground of the box were washed with an odorless disinfectant (Sanicid® diluted in water) and dried between each trial. A camcorder was fixed to the ceiling above the box to record the animals' activity. The experiment was analyzed blindly at a later time.
On the week before the test, animals were handled by the experimenter in charge of the experiment in order to be not stressed at the time of testing. For this purpose, the experimenter placed a small amount of litter, and then the mouse on its hand. […] The NOR test was completed over five days (see FIG. 1): • Day 1: Habituation trial. Animals were individually placed for a 15-min free exploration session in empty open boxes. • Day 2. Treatment administration and sample trial. […] They were individually placed 30 min after in the apparatus for a 6-min session with two identical objects (Duck, 50% of animals or Lego, 50% of animals). • […]. […]. The mice were individually placed for a 6-min session in the apparatus with two objects (Duck and Lego), one of the objects presented in sample trials (termed as familiar objects) and a novel object (Lego, 50% of animals or Duck, 50% of animals).
The sample and choice trials were recorded with the camera located above the apparatus. The time spent by mice in exploring the objects was measured during the sample trial and the choice trial.
Exploration of an object was defined as follows: directing the nose to the object at a distance≤2 cm and/or touching it with the nose or forelimbs: turning around or biting the object, or sitting on the object were not considered as exploratory behavior.
Data recorded: • L=exploration time of the left object in the sample trial. • R=exploration time of the right object in the sample trial. • N=exploration time of the new object in the choice trial. • F=exploration time of the familiar object in the choice trial. Object recognition task indices include the following parameters: • Exploration indices: • ST=L+R=exploration time (left object+right object) in the sample trial. • CT=N+F=exploration time (new object+familiar object) in the choice trial. • Two memory indices: • N−F=difference of exploration time between the new object and the familiar object in the choice trial.
Statistical analyses: • Read-outs: DI, N−F, ST, CT, N, F • Unpaired Student's t test: Donep 2 group vs. Control group. • One-way ANOVA, Dunnett test: • Benedin groups vs. Control group. • Benedin groups vs. Donep 2 group. • Read-outs: DI and N−F, for all groups, paired Student's t test, difference vs. 0. • Body weight: one-way ANOVA.

On to `NC12CC3CC(CC(C3)C1)C2` [Amantadine], for which the “response (reducing the number of episodes)” value in test [1] is listed as 41%.
Regarding “Donepezil hydrochloride [reference compound]”, the “recognition of the familiar object, i.e. memory” value in the test on Mice, C57BL/6J, male is “improved the recognition of the familiar object”.
